Experimental data as given in patent publication US10597388B2, “Pyridazinone herbicides” (FMC CORPORATION, priority 2014, dated 2020).

What was measured:
Assay in all cases: Test D controlled growth environment herbicide test, pre- and postemergence
Type in all cases: in vivo
[1] = system: deadnettle (henbit deadnettle, Lamium amplexicaule)
Summary of the method: (§1)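 Pre-emergence: seeds sown in silt loam soil were sprayed with compound in a non-phytotoxic solvent mix containing surfactant. Post-emergence: plants at 2 to 18 cm (1- to 4-leaf stage) in peat moss/vermiculite medium got the same formulation. Visual 0–100 rating versus controls after 14 to 21 d.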

[2] = system: ryegrass, Italian (Italian ryegrass, Lolium multiflorum)
Summary of the method: as §1

[3] = system: field violet (Viola arvensis)
Summary of the method: as §1

[4] = system: Russian thistle (Salsola kali)
Summary of the method: as §1

[5] = system: canarygrass (Phalaris minor)
Summary of the method: as §1

[6] = system: oilseed rape (Brassica napus)
Summary of the method: as §1

[7] = system: speedwell (bird's-eye speedwell, Veronica persica)
Summary of the method: as §1

[8] = system: kochia (Kochia scoparia)
Summary of the method: as §1

[9] = system: bluegrass (annual bluegrass, Poa annua)
Summary of the method: as §1

[10] = system: barley, spring (spring barley, Hordeum vulgare)
Summary of the method: as §1

[11] = system: radish, wild (wild radish, Raphanus raphanistrum)
Summary of the method: as §1

[12] = system: buckwheat, wild (wild buckwheat, Polygonum convolvulus)
Summary of the method: as §1

[13] = system: galium (catchweed bedstraw, Galium aparine)
Summary of the method: as §1

[14] = Postemergence, 31 g ai/ha, scale 0 to 100 (0 no effect, 100 complete control)
[15] = Postemergence, 125 g ai/ha, visual rating on scale 0 (no effect) to 100 (complete control), 14 to 21 d
[16] = Postemergence, 250 g ai/ha, scale 0 to 100 (0 no effect, 100 complete control)
[17] = Preemergence, 62 g ai/ha, scale 0 to 100 (0 no effect, 100 complete control)
[18] = Preemergence, 125 g ai/ha, scale 0 to 100 (0 no effect, 100 complete control)
[19] = Preemergence, 250 g ai/ha, scale 0 to 100, 0 no effect, 100 complete control
[20] = postemergence, 62 g ai/ha, scale 0 to 100, 0 no effect, 100 complete control

Compound: Cc1ccc2sc(C)c(-c3c(OC(=O)OC(C)C)c(C)nn(C)c3=O)c2c1 [Compound 66]
- Deadnettle plant response rating [1, 14]: 15
- Plant response rating, Deadnettle [1, 15]: 35
- Plant response rating, Deadnettle [1, 16]: 40
- Plant response rating (scale of 0 to 100), Deadnettle ([1]; Preemergence, 31 g ai/ha): 15
- Plant response rating, Deadnettle [1, 17]: 40
- Plant response rating, Deadnettle [1, 18]: 55
- Plant response rating, Deadnettle [1, 19]: 55
- Plant response rating, Deadnettle [1, 20]: 15
- Ryegrass, Italian plant response rating [2, 14]: 85
- Plant response rating, Ryegrass, Italian [2, 15]: 95
- Plant response rating, Ryegrass, Italian [2, 16]: 98
- Plant response rating (scale of 0 to 100), Ryegrass, Italian ([2]; Preemergence, 31 g ai/ha): 80
- Plant response rating, Ryegrass, Italian [2, 17]: 85
- Plant response rating, Ryegrass, Italian [2, 18]: 90
- Plant response rating, Ryegrass, Italian [2, 19]: 95
- Plant response rating, Ryegrass, Italian [2, 20]: 95
- Field Violet plant response rating [3, 14]: 85
- Plant response rating, Field Violet [3, 15]: 95
- Plant response rating, Field Violet [3, 16]: 95
- Plant response rating (scale of 0 to 100), Field Violet ([3]; Preemergence, 31 g ai/ha): 60
- Plant response rating, Field Violet [3, 17]: 85
- Plant response rating, Field Violet [3, 18]: 95
- Plant response rating, Field Violet [3, 19]: 98
- Plant response rating, Field Violet [3, 20]: 95
- Russian Thistle plant response rating [4, 14]: 75
- Plant response rating, Russian Thistle [4, 15]: 75
- Plant response rating, Russian Thistle [4, 16]: 80
- Plant response rating (scale of 0 to 100), Russian Thistle ([4]; Preemergence, 31 g ai/ha): 0
- Plant response rating, Russian Thistle [4, 17]: 20
- Plant response rating, Russian Thistle [4, 18]: 60
- Plant response rating, Russian Thistle [4, 19]: 90
- Plant response rating, Russian Thistle [4, 20]: 80
- Canarygrass plant response rating [5, 14]: 55
- Plant response rating, Canarygrass [5, 15]: 70
- Plant response rating, Canarygrass [5, 16]: 85
- Plant response rating (scale of 0 to 100), Canarygrass ([5]; Preemergence, 31 g ai/ha): 25
- Plant response rating, Canarygrass [5, 17]: 80
- Plant response rating, Canarygrass [5, 18]: 85
- Plant response rating, Canarygrass [5, 19]: 95
- Plant response rating, Canarygrass [5, 20]: 65
- Oilseed Rape plant response rating [6, 14]: 0
- Plant response rating, Oilseed Rape [6, 15]: 65
- Plant response rating, Oilseed Rape [6, 16]: 75
- Plant response rating (scale of 0 to 100), Oilseed Rape ([6]; Preemergence, 31 g ai/ha): 35
- Plant response rating, Oilseed Rape [6, 17]: 35
- Plant response rating, Oilseed Rape [6, 18]: 35
- Plant response rating, Oilseed Rape [6, 19]: 35
- Plant response rating, Oilseed Rape [6, 20]: 20
- Speedwell plant response rating [7, 14]: 55
- Plant response rating, Speedwell [7, 15]: 70
- Plant response rating, Speedwell [7, 16]: 75
- Plant response rating (scale of 0 to 100), Speedwell ([7]; Preemergence, 31 g ai/ha): 75
- Plant response rating, Speedwell [7, 17]: 100
- Plant response rating, Speedwell [7, 18]: 100
- Plant response rating, Speedwell [7, 19]: 100
- Plant response rating, Speedwell [7, 20]: 70
- Kochia plant response rating [8, 14]: 85
- Plant response rating, Kochia [8, 15]: 100
- Plant response rating, Kochia [8, 16]: 100
- Plant response rating (scale of 0 to 100), Kochia ([8]; Preemergence, 31 g ai/ha): 0
- Plant response rating, Kochia [8, 17]: 15
- Plant response rating, Kochia [8, 18]: 75
- Plant response rating, Kochia [8, 19]: 85
- Plant response rating, Kochia [8, 20]: 95
- Bluegrass plant response rating [9, 14]: 0
- Plant response rating, Bluegrass [9, 15]: 30
- Plant response rating, Bluegrass [9, 16]: 35
- Plant response rating (scale of 0 to 100), Bluegrass ([9]; Preemergence, 31 g ai/ha): 10
- Plant response rating, Bluegrass [9, 17]: 15
- Plant response rating, Bluegrass [9, 18]: 25
- Plant response rating, Bluegrass [9, 19]: 30
- Plant response rating, Bluegrass [9, 20]: 25
- Barley, Spring plant response rating [10, 14]: 0
- Plant response rating, Barley, Spring [10, 15]: 5
- Plant response rating, Barley, Spring [10, 16]: 15
- Plant response rating (scale of 0 to 100), Barley, Spring ([10]; Preemergence, 31 g ai/ha): 0
- Plant response rating, Barley, Spring [10, 17]: 0
- Plant response rating, Barley, Spring [10, 19]: 10
- Plant response rating, Barley, Spring [10, 20]: 0
- Radish, Wild plant response rating [11, 14]: 5
- Plant response rating, Radish, Wild [11, 15]: 30
- Plant response rating, Radish, Wild [11, 16]: 45
- Plant response rating (scale of 0 to 100), Radish, Wild ([11]; Preemergence, 31 g ai/ha): 30
- Plant response rating, Radish, Wild [11, 17]: 70
- Plant response rating, Radish, Wild [11, 18]: 75
- Plant response rating, Radish, Wild [11, 19]: 70
- Plant response rating, Radish, Wild [11, 20]: 25
- Buckwheat, Wild plant response rating [12, 14]: 95
- Plant response rating, Buckwheat, Wild [12, 15]: 100
- Plant response rating, Buckwheat, Wild [12, 16]: 100
- Plant response rating (scale of 0 to 100), Buckwheat, Wild ([12]; Preemergence, 31 g ai/ha): 0
- Plant response rating, Buckwheat, Wild [12, 17]: 0
- Plant response rating, Buckwheat, Wild [12, 18]: 0
- Plant response rating, Buckwheat, Wild [12, 19]: 0
- Plant response rating, Buckwheat, Wild [12, 20]: 100
- Galium plant response rating [13, 14]: 85
- Plant response rating, Galium [13, 15]: 100
- Plant response rating, Galium [13, 16]: 100
- Plant response rating (scale of 0 to 100), Galium ([13]; Preemergence, 31 g ai/ha): 0
- Plant response rating, Galium [13, 17]: 20
- Plant response rating, Galium [13, 18]: 65
- Plant response rating, Galium [13, 19]: 75
- Plant response rating, Galium [13, 20]: 100
